According to patent US6660718B1, “3-modified leucomycin derivatives” (Meiji Seika Kaisha, Ltd., priority 1999, dated 2003):
≈ marks a conversion by molar mass, not a printed value.

Legend:
[1] = tested on: Streptococcus pneumoniae PRC-91 (ermAM methylase); experiment: Antibacterial activity test (agar dilution MIC); assay type: cell-based; settings: agar plates, 37° C., about 20 hours
Protocol: (§1) In vitro antibacterial activities of the compounds of Examples 3, 5, 20, 23, 25 and 48 were determined as follows by referring to the standard method of the Japanese Society of Chemotherapy (Chemotherapy, 29, pp.76-79, 1981). For comparison, antibacterial activities of rokitamycin (RKM), leucomycin-A7 (LM-A7) and the compound described in U.S. Pat. No. 5,407,918, Example 7 were determined in the same manner.
(§2) For a solution of each test drug dissolved in methanol at 5000 μg/ml, a series of 2-fold dilutions were prepared. 200 μl of each solution of the test drug was added in a petri dish, added with 10 ml of agar medium for susceptibility measurement supplemented with 5% of sterile horse defibrinated blood, 15 μg/ml of β-nicotinamide adenine dinucleotide and 5 μg/ml of Hemin, and then mixed to prepare agar plates containing the test drug. A given volume of a culture broth for susceptibility measurement, which was prepared to contain a given cell numbers of bacteria to be tested, was inoculated to the agar plates containing the test drug by using a micro planter (Sakuma Seisakusho). After the inoculation, cultivation was carried out at 37° C. for about 20 hours. After the culture, presence or absence of the growth of the test bacteria on the plates was observed by visual inspection, and the minimum concentration at which no growth was observed was determined as minimum inhibitory concentration (MIC) of each test drug for each of the test bacteria The results are shown in Tables 1-1, 1-2 and 1-3.

[2] = tested on: Streptococcus pneumoniae TH-662 (ermAM methylase); experiment: Antibacterial activity test (agar dilution MIC); assay type: cell-based; settings: agar plates, 37° C., about 20 hours
Protocol: as §1, §2

[3] = tested on: Moraxella catarrhalis W-0500; experiment: Antibacterial activity test (agar dilution MIC); assay type: cell-based; settings: 37° C., about 20 hours; for Minimum inhibitory concentration (MIC): agar plates
Protocol: as §1, §2

[4] = tested on: Staphylococcus aureus 209P JC-1; experiment: Antibacterial activity test (agar dilution MIC); assay type: cell-based; settings: agar plates, 37° C., about 20 hours
Protocol: as §1, §2

[5] = tested on: Haemophilus influenzae 9334; experiment: Antibacterial activity test (agar dilution MIC); assay type: cell-based; settings: agar plates, 37° C., about 20 hours
Protocol: as §1, §2

[6] = tested on: Streptococcus pneumoniae IP692; experiment: Antibacterial activity test (agar dilution MIC); assay type: cell-based; settings: agar plates, 37° C., about 20 hours
Protocol: as §1, §2

[7] = tested on: Streptococcus pneumoniae PRC-53 (mefE efflux); experiment: Antibacterial activity test (agar dilution MIC); assay type: cell-based; settings: for Minimum inhibitory concentration (MIC): Streptococcus pneumoniae PRC-53 (mefE efflux), agar plates, 37° C., about 20 hours
Protocol: as §1, §2

[8] = tested on: Streptococcus pneumoniae DP1 TypeI; experiment: Antibacterial activity test (agar dilution MIC); assay type: cell-based; settings: agar plates, 37° C., about 20 hours
Protocol: as §1, §2

[9] = tested on: Micrococcus luteus ATCC9341; experiment: Antibacterial activity test (agar dilution MIC); assay type: cell-based; settings: agar plates, 37° C., about 20 hours
Protocol: as §1, §2

[10] = tested on: Staphylococcus aureus MS15027 (ermC methylase); experiment: Antibacterial activity test (agar dilution MIC); assay type: cell-based; settings: for Minimum inhibitory concentration (MIC): Staphylococcus aureus MS15027 (ermC methylase), agar plates, 37° C., about 20 hours
Protocol: as §1, §2

[11] = tested on: Streptococcus pyogenes Cook; experiment: Antibacterial activity test (agar dilution MIC); assay type: cell-based; settings: agar plates, 37° C., about 20 hours
Protocol: as §1, §2

Gram-positive bacteria = experiment: Antibacterial activity test, overall comparison; assay type: cell-based; settings: for enhancement of the antibacterial activity compared to RKM and LM-A7: comparison of MIC values of Tables 1-1 and 1-2
Protocol: as §1, §2

[12] = assay type: in vitro ADME; settings: 4 h
Protocol: Stability of the compound of Example 3 in plasma was studied as follows. Stability of RKM in plasma was also studied in the same manner for comparison. Blood was collected from rat ventral aorta and centrifuged (3000 rpm, 15 minutes) to separate plasma. 10 μl of a solution of a test drug dissolved in methanol at a concentration of 1600 μg/ml was added to 190 μl of the rat plasma and reacted at 37° C. At the start of the reaction and after 1, 2 and 4 hours, a part of the reaction mixture was collected and added with a given volume of an acetonitrile solution to prepare a bioassay sample for measurement of test medicament concentration. […] After the incubation, the diameter of the ring by growth inhibition of Micrococcus luteus ATCC9341 observed around the paper disc was measured by using a digital caliper. […] Based on a calibration curve obtained from concentrations of the standard solutions and diameters of growth inhibition rings, concentrations of the test drug in the samples at several time points were calculated, and then, by using the calculated remaining concentrations of the test drug in the samples at the time points, ratios of activity (%) based on the concentration at the start of the reaction, which was taken as 100%, were calculated. […]

[13] = tested on: resistant strains of Streptococcus pneumoniae; experiment: Antibacterial activity test, resistant strains, comparison; assay type: cell-based; settings: comparison of MIC values of Table 1-3; reversed versus natural configuration at 3-position
Protocol: as §1
as §2, with “A given volume of a culture broth for susceptibility measurement, which was prepared to contain a given cell numbers of bacteria to be tested, was inoculated to the agar plates containing the test drug by using a micro planter (Sakuma Seisakusho). After the inoculation, cultivation was carried out at 37° C. for about 20 hours.” left out

[14] = read-out: Minimum inhibitory concentration (MIC)

| Compound | Minimum inhibitory concentration (MIC) [1] | Minimum inhibitory concentration (MIC) [2] | Minimum inhibitory concentration (MIC) [3] | Minimum inhibitory concentration (MIC) [4] | Minimum inhibitory concentration (MIC) [5] | Minimum inhibitory concentration (MIC) [6] | Minimum inhibitory concentration (MIC) [7] | Minimum inhibitory concentration (MIC) [8] | Minimum inhibitory concentration (MIC) [9] | Minimum inhibitory concentration (MIC) [10] | Minimum inhibitory concentration (MIC) [11] | also measured |
| --- | --- | --- | --- | --- | --- | --- | --- | --- | --- | --- | --- | --- |
| CCC(=O)OC1C(C)OC(OC2C(C)OC(OC3C(CC=O)CC(C)C(O)C=CC=CCC(C)OC(=O)CC(OC(=O)c4ccccc4)C3OC)C(O)C2N(C)C)CC1(C)O (centres unmarked) [Example 25, 3-O-Benzoylleucomycin A7] | >100 µg/mL | >100 µg/mL | 1.56 µg/mL (≈ 1.81 µM) | 0.39 µg/mL (≈ 0.452 µM) | 6.25 µg/mL (≈ 7.25 µM) | 0.39 µg/mL (≈ 0.452 µM) | 0.39 µg/mL (≈ 0.452 µM) |  |  |  |  |  |
| CCC(=O)O[C@H]1[C@H](C)O[C@@H](O[C@H]2[C@H](N(C)C)[C@@H](O)[C@H](O[C@H]3[C@@H](CC=O)C[C@@H](C)[C@@H](O)/C=C/C=C/C[C@@H](C)OC(=O)C[C@@H](O)[C@@H]3OC)O[C@@H]2C)C[C@@]1(C)O [LM-A7, leucomycin-A7, reference compound] | >100 µg/mL | >100 µg/mL | 0.78 µg/mL (≈ 1.03 µM) | 0.39 µg/mL (≈ 0.515 µM) | 1.56 µg/mL (≈ 2.06 µM) | 0.39 µg/mL (≈ 0.515 µM) | 0.20 µg/mL (≈ 0.264 µM) | 0.20 µg/mL (≈ 0.264 µM) | 0.10 µg/mL (≈ 0.132 µM) | 0.39 µg/mL (≈ 0.515 µM) | 0.10 µg/mL (≈ 0.132 µM) |  |
| CCC(=O)OC1C(C)OC(OC2C(C)OC(OC3C(CC=O)CC(C)C(O)C=CC=CCC(C)OC(=O)CC(OC)C3OC)C(O)C2N(C)C)CC1(C)O (centres unmarked) [Example 23, 3-O-Methylleucomycin A7] |  |  | 0.78 µg/mL (≈ 1.01 µM) | 0.20 µg/mL (≈ 0.259 µM) | 1.56 µg/mL (≈ 2.02 µM) |  | 0.10 µg/mL (≈ 0.13 µM) | 0.10 µg/mL (≈ 0.13 µM) | 0.05 µg/mL (≈ 0.0648 µM) | 0.20 µg/mL (≈ 0.259 µM) | 0.10 µg/mL (≈ 0.13 µM) | enhancement of the antibacterial activity compared to RKM and LM-A7 (Gram-positive bacteria): two-fold |
| CCCC(=O)OC1C(C)OC(OC2C(C)OC(OC3C(CC=O)CC(C)C(O)C=CC=CCC(C)OC(=O)CC(OC)C3OC)C(O)C2N(C)C)CC1(C)OC(=O)CC (centres unmarked) [Example 3, 3-O-Methylrokitamycin] |  |  | 0.20 µg/mL (≈ 0.238 µM) | 0.10 µg/mL (≈ 0.119 µM) | 3.13 µg/mL (≈ 3.72 µM) |  | 0.10 µg/mL (≈ 0.119 µM) | 0.05 µg/mL (≈ 0.0594 µM) | 0.025 µg/mL (≈ 0.0297 µM) | 0.20 µg/mL (≈ 0.238 µM) | 0.025 µg/mL (≈ 0.0297 µM) | enhancement of the antibacterial activity compared to RKM and LM-A7 (Gram-positive bacteria): two-fold; Stability in rat plasma (remaining antibacterial activity with time) [12]: more stable in the rat plasma than RKM |
| CCCC(=O)O[C@H]1[C@H](C)O[C@@H](O[C@H]2[C@H](N(C)C)[C@@H](O)[C@H](O[C@H]3[C@@H](CC=O)C[C@@H](C)[C@@H](O)/C=C/C=C/C[C@@H](C)OC(=O)C[C@@H](O)[C@@H]3OC)O[C@@H]2C)C[C@@]1(C)OC(=O)CC [RKM, rokitamycin, reference compound] |  |  |  |  |  |  |  |  |  |  |  | MIC ([8]; DP1TYPEI, read-out: Minimum inhibitory concentration (MIC)): 0.1 µg/mL (≈ 0.121 µM); MIC ([3]; W0500, agar plates, read-out: Minimum inhibitory concentration (MIC)): 0.2 µg/mL (≈ 0.242 µM); MIC [9, 14]: 0.05 µg/mL (≈ 0.0604 µM); MIC ([10]; Staphylococcus aureus, 20 h, read-out: Minimum inhibitory concentration (MIC)): 0.39 µg/mL (≈ 0.471 µM); MIC [4, 14]: 0.2 µg/mL (≈ 0.242 µM); MIC [5, 14]: 1.56 µg/mL (≈ 1.88 µM); MIC [11, 14]: 0.05 µg/mL (≈ 0.0604 µM); MIC ([7]; Streptococcus pneumoniae, 20 h, read-out: Minimum inhibitory concentration (MIC)): 0.2 µg/mL (≈ 0.242 µM) |
| C=CCOC1CC(=O)OC(C)CC=CC=CC(O)C(C)CC(CC=O)C(OC2OC(C)C(OC3CC(C)(OC(=O)CC)C(OC(=O)CCC)C(C)O3)C(N(C)C)C2O)C1OC (centres unmarked) [Example 5, 3-O-Allylrokitamycin] |  |  | 0.39 µg/mL (≈ 0.449 µM) | 0.20 µg/mL (≈ 0.23 µM) | 6.25 µg/mL (≈ 7.2 µM) |  | 0.20 µg/mL (≈ 0.23 µM) | 0.20 µg/mL (≈ 0.23 µM) | 0.10 µg/mL (≈ 0.115 µM) | 0.39 µg/mL (≈ 0.449 µM) | 0.10 µg/mL (≈ 0.115 µM) |  |
| COC1CC(=O)OC(C)CC=CC=CC(O)C(C)CC(CC=O)C(OC2OC(C)C(OC3CC(C)(OC)C(OCCC(C)C)C(C)O3)C(N(C)C)C2O)C1OC (centres unmarked) [Example 20, 4″-O-Isoamyl-3,3″-di-O-methylleucomycin V] |  |  | 0.39 µg/mL (≈ 0.487 µM) | 0.20 µg/mL (≈ 0.25 µM) | 1.56 µg/mL (≈ 1.95 µM) |  | 0.10 µg/mL (≈ 0.125 µM) | 0.10 µg/mL (≈ 0.125 µM) | 0.05 µg/mL (≈ 0.0625 µM) | 0.39 µg/mL (≈ 0.487 µM) | 0.10 µg/mL (≈ 0.125 µM) | antibacterial activity compared with the compound described in Example 7 of U.S. Pat. No. 5,407,918 (Gram-positive bacteria; comparison of MIC values of Table 1-2): almost the same antibacterial activity |
| CCC(=O)OC1C(C)OC(OC2C(C)OC(OC3C(CC=O)CC(C)C(O)C=CC=CCC(C)OC(=O)CC(OC(=O)c4ccccc4)C3OC)C(O)C2N(C)C)CC1(C)O (stereo not drawn) [Example 48, 3-Epi-3-O-benzoylleucomycin A7] | 25 µg/mL (≈ 29 µM) | 25 µg/mL (≈ 29 µM) | 0.78 µg/mL (≈ 0.905 µM) | 0.39 µg/mL (≈ 0.452 µM) | 6.25 µg/mL (≈ 7.25 µM) | 0.20 µg/mL (≈ 0.232 µM) | 0.20 µg/mL (≈ 0.232 µM) |  |  | 0.78 µg/mL (≈ 0.905 µM) |  | antibacterial activity against the resistant strains of Streptococcus pneumoniae, compared with Example 25 [13]: improvement in antibacterial activity |
